The source made the active and inactive calls.
How the values were obtained:
Cyclin-T1 [1] = biological target: T1, Cyclin-T1 (Homo sapiens, UniProt O60563); test: Induction of Hyt-mediated degradation of cyclin T1 in human 22Rv1 cells assessed as downregulation of cyclin T1 level at 2 uM incubated for 24 hrs by DIA-based proteomics analysis; assay type: cell-based
[2] = biological target: T2, CDK9/cyclin T1 (Homo sapiens) (UniProt O60563+P50750); test: Induction of CDK9/Cyclin T1 degradation in human 22Rv1 cells assessed as downregulation of ZNF517 gene expression at 2 uM incubated for 24 hrs by RNA-Seq based analysis; assay type: cell-based
[3] = biological target: T2, CDK9/cyclin T1 (Homo sapiens); test: Induction of CDK9/Cyclin T1 degradation in human 22Rv1 cells assessed as downregulation of KLK15 gene expression at 2 uM incubated for 24 hrs by RNA-Seq based analysis; assay type: cell-based
[4] = biological target: T2, CDK9/cyclin T1 (Homo sapiens); test: Induction of CDK9/Cyclin T1 degradation in human 22Rv1 cells assessed as downregulation of MCL1 protein expression at 0.3 to 3 uM incubated for 24 hrs by immunoblot analysis; assay type: cell-based; settings: dose 0.3-3 µM
CWR22R [5] = test: Downregulation of CDK1 level in human 22Rv1 cells at 3 uM measured after 12 hrs by DIA-based proteomics analysis; assay type: functional, cell-based
[6] = biological target: T3, Cyclin-dependent kinase 9 (Homo sapiens, UniProt P50750); test: Induction of HyT-mediated degradation of CDK9 in human 22Rv1 cells at 3 uM measured after 5 to 18 hrs by immunoblot analysis; assay type: cell-based; settings: time 5-18 hrs
CWR22R [7] = test: Downregulation of CDK4 level in human 22Rv1 cells at 3 uM measured after 12 hrs by DIA-based proteomics analysis; assay type: functional, cell-based
[8] = biological target: T3, Cyclin-dependent kinase 9; test: Induction of HyT-mediated degradation of CDK9 in human 22Rv1 cells assessed as reduction in CDK9 protein level at 3 uM measured after 24 to 48 hrs by immunoblot analysis; assay type: cell-based; settings: time 24-48 hrs
[9] = biological target: T2, CDK9/cyclin T1 (Homo sapiens); test: Induction of CDK9/Cyclin T1 degradation in human 22Rv1 cells assessed as downregulation of NOTCH1 gene expression at 2 uM incubated for 24 hrs by RNA-Seq based analysis; assay type: cell-based
[10] = biological target: T2, CDK9/cyclin T1 (Homo sapiens); test: Induction of CDK9/Cyclin T1 degradation in human 22Rv1 cells assessed as downregulation of MYCL gene expression at 2 uM incubated for 24 hrs by RNA-Seq based analysis; assay type: cell-based
[11] = biological target: T2, CDK9/cyclin T1 (Homo sapiens); test: Induction of CDK9/Cyclin T1 degradation in human 22Rv1 cells assessed as downregulation of BTG1 gene expression at 2 uM incubated for 24 hrs by RNA-Seq based analysis; assay type: cell-based
[12] = biological target: T2, CDK9/cyclin T1 (Homo sapiens); test: Induction of CDK9/Cyclin T1 degradation in human 22Rv1 cells assessed as downregulation of KLK3 protein expression at 0.3 to 3 uM incubated fo 24 hrs by immunoblot analysis; assay type: cell-based; settings: dose 0.3-3 µM
[13] = biological target: T2, CDK9/cyclin T1 (Homo sapiens); test: Induction of CDK9/Cyclin T1 degradation in human 22Rv1 cells assessed as downregulation of SLC1A5 gene expression at 2 uM incubated for 24 hrs by RNA-Seq based analysis; assay type: cell-based
[14] = biological target: T2, CDK9/cyclin T1 (Homo sapiens); test: Induction of CDK9/Cyclin T1 degradation in human 22Rv1 cells assessed as downregulation of NAT1 gene expression at 2 uM incubated for 24 hrs by RNA-Seq based analysis; assay type: cell-based
[15] = biological target: T2, CDK9/cyclin T1 (Homo sapiens); test: Induction of CDK9/Cyclin T1 degradation in human 22Rv1 cells assessed as downregulation of c-Myc protein expression at 2 uM measured after 48 hrs by immunoblot analysis; assay type: cell-based
Cyclin-T1 [16] = biological target: T1, Cyclin-T1; test: Induction of HyT-mediated degradation of Cyclin T1 in human 22Rv1 cells at 3 uM measured after 5 to 18 hrs by immunoblot analysis; assay type: cell-based; settings: time 5-18 hrs
[17] = biological target: T2, CDK9/cyclin T1 (Homo sapiens); test: Induction of CDK9/Cyclin T1 degradation in human 22Rv1 cells assessed as downregulation of VIM gene expression at 2 uM incubated for 24 hrs by RNA-Seq based analysis; assay type: cell-based
[18] = biological target: T2, CDK9/cyclin T1 (Homo sapiens); test: Induction of CDK9/Cyclin T1 degradation in human 22Rv1 cells assessed as downregulation of AR-V7 splice variant protein expression at 2 uM measured after 24 hrs by immunoblot analysis; assay type: cell-based
[19] = biological target: T2, CDK9/cyclin T1 (Homo sapiens); test: Induction of CDK9/Cyclin T1 degradation in human 22Rv1 cells assessed as downregulation of AR-V7 splice variant protein expression at 0.3 to 3 uM measured after 24 hrs by immunoblot analysis; assay type: cell-based; settings: dose 0.3-3 µM
CWR22R [20] = test: Downregulation of CDK7 level in human 22Rv1 cells at 3 uM measured after 12 hrs by DIA-based proteomics analysis; assay type: functional, cell-based
CWR22R [21] = test: Induction of cell cycle arrest in human 22Rv1 cells assessed as accumulation of cells at sub-G1 phase at 0.3 to 1 uM incubated for 24 hrs by propidium iodide staining based flow cytometry; assay type: functional; settings: dose 0.3-1 µM
[22] = biological target: T2, CDK9/cyclin T1 (Homo sapiens); test: Induction of CDK9/Cyclin T1 degradation in human 22Rv1 cells assessed as downregulation of c-Myc protein expression at 2 uM measured after 24 hrs by immunoblot analysis; assay type: cell-based
[23] = biological target: T2, CDK9/cyclin T1 (Homo sapiens); test: Induction of CDK9/Cyclin T1 degradation in human 22Rv1 cells assessed as downregulation of AR protein expression at 3 uM measured for 36 hrs by DIA-based proteomics analysis; assay type: cell-based
[24] = biological target: T2, CDK9/cyclin T1 (Homo sapiens); test: Induction of CDK9/Cyclin T1 degradation in human 22Rv1 cells assessed as downregulation of MYCN gene expression at 2 uM incubated for 24 hrs by RNA-Seq based analysis; assay type: cell-based
CWR22R [25] = test: Inhibition of colony formation in human 22Rv1 cells at 100 to 200 nM treated for 14 days with replacement with fresh medium containing compound for every 48 hrs by crystal violet staining based analysis; assay type: functional, cell-based; settings: dose 100-200 nM, time 14.0 day
[26] = biological target: T2, CDK9/cyclin T1 (Homo sapiens); test: Induction of CDK9/Cyclin T1 degradation in human 22Rv1 cells assessed as downregulation of KLK2 gene expression at 2 uM incubated for 24 hrs by RNA-Seq based analysis; assay type: cell-based
[27] = biological target: Cyclin-dependent kinase 4 (Homo sapiens) (UniProt P11802); test: Induction of CDK4 degradation in human 22Rv1 cells assessed as downregulation of CDK4 level at 3 uM measured after 12 hrs by DIA-based proteomics analysis; assay type: cell-based
[28] = biological target: T2, CDK9/cyclin T1 (Homo sapiens); test: Induction of CDK9/Cyclin T1 degradation in human 22Rv1 cells assessed as decrease in cyclin C protein expression at 3 uM measured for 36 hrs by DIA-based proteomics analysis; assay type: cell-based
[29] = biological target: T2, CDK9/cyclin T1 (Homo sapiens); test: Induction of CDK9/Cyclin T1 degradation in human 22Rv1 cells assessed as inhibition of Ser2 phosphorylation of RNA Pol II CTD at 0.3 to 3 uM incubated for 24 hrs by immunoblot analysis; assay type: cell-based; settings: dose 0.3-3 µM
[30] = biological target: T2, CDK9/cyclin T1 (Homo sapiens); test: Induction of CDK9/Cyclin T1 degradation in human 22Rv1 cells assessed as downregulation of AR protein expression at 0.3 to 3 uM measured after 24 hrs by immunoblot analysis; assay type: cell-based; settings: dose 0.3-3 µM
[31] = biological target: T2, CDK9/cyclin T1 (Homo sapiens); test: Induction of CDK9/Cyclin T1 degradation in human 22Rv1 cells assessed as downregulation of AR protein expression at 2 uM measured after 24 hrs by immunoblot analysis; assay type: cell-based
[32] = biological target: G1/S-specific cyclin-E1 (Homo sapiens) (UniProt P24864); test: Induction of HyT-mediated degradation of cyclin E1 in human 22Rv1 cells assessed as reduction in cyclin E1 level at 6 uM incubated for 24 hrs by immunoblot analysis; assay type: cell-based
Cyclin-T1 [33] = biological target: T1, Cyclin-T1; test: Induction of HyT-mediated degradation of Cyclin T1 in human 22Rv1 cells assessed as reduction in Cyclin T1 protein level at 3 uM measured after 24 to 48 hrs by immunoblot analysis; assay type: cell-based; settings: time 24-48 hrs

T1 sequence (O60563 whole entry): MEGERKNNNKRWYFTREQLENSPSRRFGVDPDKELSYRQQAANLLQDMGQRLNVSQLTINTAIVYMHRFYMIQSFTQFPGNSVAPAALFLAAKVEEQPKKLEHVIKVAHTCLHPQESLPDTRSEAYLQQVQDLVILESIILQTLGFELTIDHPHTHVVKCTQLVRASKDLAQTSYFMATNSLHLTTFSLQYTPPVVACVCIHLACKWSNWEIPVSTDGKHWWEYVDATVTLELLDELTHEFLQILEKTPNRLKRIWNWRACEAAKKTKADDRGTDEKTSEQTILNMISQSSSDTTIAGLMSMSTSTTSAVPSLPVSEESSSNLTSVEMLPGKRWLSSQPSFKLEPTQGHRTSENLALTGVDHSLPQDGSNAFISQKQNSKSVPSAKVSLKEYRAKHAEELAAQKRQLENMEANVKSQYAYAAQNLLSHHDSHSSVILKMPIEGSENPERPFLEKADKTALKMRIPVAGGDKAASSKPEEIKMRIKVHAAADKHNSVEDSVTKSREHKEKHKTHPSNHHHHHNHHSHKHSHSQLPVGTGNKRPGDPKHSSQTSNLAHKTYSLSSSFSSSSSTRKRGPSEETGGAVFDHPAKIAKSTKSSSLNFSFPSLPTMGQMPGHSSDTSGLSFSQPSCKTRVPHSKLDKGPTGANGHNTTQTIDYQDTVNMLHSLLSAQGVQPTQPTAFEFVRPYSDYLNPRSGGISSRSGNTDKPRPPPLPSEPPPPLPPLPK
T3 sequence (P50750 whole entry): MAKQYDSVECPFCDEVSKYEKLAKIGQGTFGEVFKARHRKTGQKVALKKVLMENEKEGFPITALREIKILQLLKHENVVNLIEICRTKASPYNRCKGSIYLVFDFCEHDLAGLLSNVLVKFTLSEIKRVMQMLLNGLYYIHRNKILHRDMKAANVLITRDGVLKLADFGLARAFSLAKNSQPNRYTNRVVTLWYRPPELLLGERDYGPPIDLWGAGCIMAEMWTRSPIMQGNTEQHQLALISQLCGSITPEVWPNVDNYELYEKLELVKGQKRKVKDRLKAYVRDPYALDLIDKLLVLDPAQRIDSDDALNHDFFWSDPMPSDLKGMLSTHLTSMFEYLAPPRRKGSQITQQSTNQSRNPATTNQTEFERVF
G1/S-specific cyclin-E1 (Homo sapiens), sequence (P24864 whole entry): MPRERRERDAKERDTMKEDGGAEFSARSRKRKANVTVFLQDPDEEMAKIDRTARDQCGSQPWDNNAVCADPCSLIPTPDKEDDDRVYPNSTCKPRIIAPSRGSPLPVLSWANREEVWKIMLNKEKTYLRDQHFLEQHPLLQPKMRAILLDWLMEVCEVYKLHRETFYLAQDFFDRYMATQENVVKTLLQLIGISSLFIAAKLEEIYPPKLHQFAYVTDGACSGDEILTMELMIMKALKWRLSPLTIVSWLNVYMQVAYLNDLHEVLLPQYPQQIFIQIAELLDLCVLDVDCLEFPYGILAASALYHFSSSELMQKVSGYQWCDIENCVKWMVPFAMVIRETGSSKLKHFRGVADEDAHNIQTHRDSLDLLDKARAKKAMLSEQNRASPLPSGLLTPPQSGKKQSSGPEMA
Cyclin-dependent kinase 4 (Homo sapiens), sequence (P11802 whole entry): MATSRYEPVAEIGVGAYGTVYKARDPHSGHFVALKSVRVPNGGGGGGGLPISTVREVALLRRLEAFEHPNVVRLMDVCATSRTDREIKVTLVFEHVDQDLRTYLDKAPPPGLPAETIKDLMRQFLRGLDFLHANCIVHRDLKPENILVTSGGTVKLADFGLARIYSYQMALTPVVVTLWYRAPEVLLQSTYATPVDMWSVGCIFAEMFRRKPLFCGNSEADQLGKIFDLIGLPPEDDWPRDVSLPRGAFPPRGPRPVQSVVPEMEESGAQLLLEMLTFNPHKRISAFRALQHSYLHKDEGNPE

CC(C)[C@@H]1CC[C@@H](C)C[C@H]1OCC(=O)NCCS(=O)(=O)N1CCC(C(=O)Nc2ncc(SCc3ncc(C(C)(C)C)o3)s2)CC1
active: Activity (Cyclin-T1 [1]) | Activity [2] | Activity [3] | Activity [4] | inhibition (CWR22R [5]) | Activity [6] | inhibition (CWR22R [7]) | Activity [8] | Activity [9] | Activity [10] | Activity [11] | Activity [12] | Activity [13] | Activity [14] | Activity [15] | Activity (Cyclin-T1 [16]) | Activity [17] | Activity [18] | Activity [19] | inhibition (CWR22R [20]) | Activity (CWR22R [21]) | Activity [22] | Activity [23] | Activity [24] | inhibition (CWR22R [25]) | Activity [26] | Activity [27] | Activity [28] | Activity [29] | Activity [30] | Activity [31] | Activity [32] | Activity (Cyclin-T1 [33])

Reference: ChEMBL document CHEMBL5113511, “Discovery of Small-Molecule Degraders of the CDK9-Cyclin T1 Complex for Targeting Transcriptional Addiction in Prostate Cancer” (J Med Chem, 2022)
